pIC50: −log10 of the molar value.
Assays:
[1] = tested on: IPF patients; settings: 26-week clinical trial in IPF patients; cited from earlier work
[2] = target: T1, human LPA1 (Homo sapiens, UniProt Q92633); assay: LPA1 functional antagonist assay (calcium flux); type: cell-based; settings: CHO cells overexpressing human LPA1; calcium flux induced by 10 nM LPA; read-out: hLPA1 IC50
T1 construct: expressed in transfected cells; host or cells: Chinese hamster ovary (CHO) cells
Protocol: The effectiveness of compounds of the present invention as LPA1 inhibitors can be determined in an LPA1 functional antagonist assay as follows:
The cells were then equilibrated to room temperature for 30 minutes before the assay. […] IC50 values were determined by fitting data to a 4-parameter logistic equation (GraphPad Prism, San Diego Calif.).

[3] = tested on: plasma histamine; assay: LPA challenge with plasma histamine evaluation (acute in vivo histamine assay); settings: 1 mg/kg dose
Protocol: LPA Challenge with Plasma Histamine Evaluation.
Compound is dosed orally p.o. 2 hours to CD-1 female mice prior to the LPA challenge. The mice are then dosed via tail vein (IV) with 0.15 mL of LPA in 0.1% BSA/PBS (2 μg/μL). Exactly 2 minutes following the LPA challenge, the mice are euthanized by decapitation and the trunk blood is collected. These samples are collectively centrifuged and individual 75 μL samples are frozen at −20° C. until the time of the histamine assay.
The plasma histamine analysis was run by standard EIA (Enzyme Immunoassay) methods. Plasma samples were thawed and diluted 1:30 in 0.1% BSA in PBS. The EIA protocol for histamine analysis as outlined by the manufacturer was followed (Histamine EIA, Oxford Biomedical Research, EA #31).
The LPA used in the assay is formulated as follows: LPA (1-oleoyl-2-hydroxy-sn-glycero-3-phosphate (sodium salt), 857130P, Avanti Polar Lipids) is prepared in 0.1% BSA/PBS for total concentration of 2 μg/μL, 13 mg of LPA is weighed and 6.5 mL 0.1% BSA added, vortexed and sonicated for −1 hour until a clear solution is achieved.

[4] = tested on: nerve-injured mice; settings: pretreatment; cited from earlier work
[5] = tested on: human foetal lung fibroblasts; settings: induced by BAL obtained from IPF patients; cited from earlier work
[6] = tested on: pancreatic cancer cell lines; settings: in response to LPA and peritoneal fluid (ascites) from pancreatic cancer patients; cited from earlier work
[7] = tested on: highly peritoneal metastatic pancreatic cancer cell line; settings: LPA-induced and ascites-induced; cited from earlier work
[8] = tested on: UUO mice; settings: cited from earlier work
[9] = tested on: mouse epithelial renal cell line, MCT; settings: LPA treatment of MCT cells, co-treatment; cited from earlier work

T1 sequence (Q92633 whole entry): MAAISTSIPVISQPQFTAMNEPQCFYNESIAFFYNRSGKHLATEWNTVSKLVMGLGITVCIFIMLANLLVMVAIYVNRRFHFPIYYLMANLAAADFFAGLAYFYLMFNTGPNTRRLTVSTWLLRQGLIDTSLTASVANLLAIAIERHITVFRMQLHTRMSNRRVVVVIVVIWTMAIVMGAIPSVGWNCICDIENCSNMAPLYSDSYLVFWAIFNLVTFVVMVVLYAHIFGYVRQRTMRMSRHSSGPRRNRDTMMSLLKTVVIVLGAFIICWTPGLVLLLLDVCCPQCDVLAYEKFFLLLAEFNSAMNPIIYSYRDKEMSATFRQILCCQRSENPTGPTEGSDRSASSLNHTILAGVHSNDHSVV

Row | SMILES | pIC50 [2] | other results
1 | Cc1noc(-c2ccc(-c3ccc(C4(C(=O)O)CC4)cc3)cc2)c1NC(=O)O[C@H](C)c1ccccc1 [BMS-986020] | – | rate of FVC (forced vital capacity) decline [1]: significantly reduce
2 | CCCOC(=O)Nc1c(-c2ccc(O[C@H]3CCC[C@H](C(=O)O)C3)c(CC)n2)nnn1C [Example 233, (1S,3S)-3-[(2-ethyl-6-{1-methyl-5-[(propoxycarbonyl)amino]-1H-1,2,3-triazol-4-yl}pyridin-3-yl)oxy]cyclo-hexane-1-carboxylic acid] | 5.98 | –
3 | CCCCC(=O)NCc1c(-c2ccc(O[C@H]3CCC[C@H](C(=O)O)C3)c(C)n2)nnn1C [Example 237, (1S,3S)-3-((2-methyl-6-(1-methyl-5-(pentanamidomethyl)-1H-1,2,3-triazol-4-yl)pyridin-3-yl)oxy)cyclo-hexanecarboxylic acid] | 6.11 | –
4 | Cc1nc(-c2nnn(C)c2CCNC(=O)CCC(C)C)ccc1O[C@H]1CCC[C@H](C(=O)O)C1 [Example 240] | 5.99 | –
5 | C[C@@H](N)[C@H]1CC[C@H](C(=O)Nc2ccncc2)CC1 [Example Y-27632] | – | allodynia and hyperalgesia [4]: completely abolished
6 | Cc1noc(-c2ccc(CSCCC(=O)O)cc2)c1NC(=O)OC(C)c1ccccc1Cl (stereo not shown) [Ki16425] | – | chemotaxis of human foetal lung fibroblasts [5]: blocked; in vitro migration [6]: effectively blocked; invasion activity [7]: blocked; development of renal fibrosis [8]: closely resembled the profile of LPA1 (−/−) mice; induction of CTGF expression [9]: almost completely suppressed

More lines, main results first:

Row | pIC50 [2] | SMILES | other results
7 | 8.05 | Cc1nc(-c2nnn(C)c2CNC(=O)OCc2ccccc2)ccc1O[C@H]1CCC[C@H](C(=O)O)C1 [Example 34, (1S,3S)-3-((6-(5-((((benzyloxy)carbonyl)amino)methyl)-1-methyl-1H-1,2,3-triazol-4-yl)-2-methylpyridin-3-yl)oxy)cyclohexane-1-carboxylic acid] | acute in vivo histamine assay in CD-1 mice: % histamine [3]: −96%
8 | 6.41 | Cc1nc(-c2nnn(C)c2CNC(=O)C(C)(C)Oc2ccccc2)ccc1O[C@H]1CCC[C@H](C(=O)O)C1 [Example 234, (1S,3S)-3-((2-methyl-6-(1-methyl-5-((2-methyl-2-phenoxypropanamido)methyl)-1H-1,2,3-triazol-4-yl)pyridin-3-yl)oxy)cyclohexane-1-carboxylic acid] | –
9 | 6.98 | Cc1nc(-c2nnn(C)c2CNC(=O)CC2CCCC2)ccc1O[C@H]1CCC[C@H](C(=O)O)C1 [Example 235, (1S,3S)-3-((6-(5-((2-cyclopentylacetamido)methyl)-1-methyl-1H-1,2,3-triazol-4-yl)-2-methylpyridin-3-yl)oxy)cyclohexanecarboxylic acid] | –
10 | 6.24 | Cn1nnc(-c2ccc(O[C@H]3CCC[C@H](C(=O)O)C3)cn2)c1CNC(=O)CC1CCCC1 [Example 236, (1S,3S)-3-((6-(5-((2-cyclopentylacetamido)methyl)-1-methyl-1H-1,2,3-triazol-4-yl)pyridin-3-yl)oxy)cyclohexanecarboxylic acid] | –
11 | 6.86 | Cc1nc(-c2nnn(C)c2CCNC(=O)Cc2ccccc2)ccc1O[C@H]1CCC[C@H](C(=O)O)C1 [Example 238, (1S,3S)-3-((2-methyl-6-(1-methyl-5-(2-(2-phenylacetamido)ethyl)-1H-1,2,3-triazol-4-yl)pyridin-3-yl)oxy)cyclohexane-1-carboxylic acid] | –

Source: US11697646B2, “Triazole N-linked carbamoyl cyclohexyl acids as LPA antagonists” (BRISTOL-MYERS SQUIBB COMPANY, priority 2017, dated 2023)
